From US7294715B2, “Aporphine and oxoaporphine compounds and pharmaceutical use thereof” (Lotus Pharmaceutical Co., Ltd., priority 2003, dated 2007)
Marks after values point to notes of the source that are not given here.

How the values were obtained:
[1] = system: regional myocardial ischemia and reperfusion (LAD occlusion); test: Infarct size in a rat model of regional myocardial ischemia and reperfusion; type: in vivo; details: rat, LAD occlusion 25 min, reperfusion 2 h; 0.5 mg/kg i.v.; vehicle 58±2%; P<0.05 vs vehicle
Procedure: Seventy two male Wistar rats (215-300 g, Charles River, Margate, U.K.) were anaesthetized with thiopentone sodium (Intraval®, 120 mg/kg i.p.; Rhone-Merrieux, Essex, U.K.). The rats were tracheotomised and ventilated with a Harvard ventilator (70 strokes/min, tidal volume: 8-10 ml/kg, inspiratory oxygen concentration: 30%). Body temperature was maintained at 38±1° C. The right carotid artery was cannulated and connected to a pressure transducer (MLT 844, AD Instruments Ltd, Hastings, UK) to monitor mean arterial blood pressure and heart rate, which were continuously recorded on a data acquisition system (Powerlab® Version 4.0.4, AD Instruments, Hastings, UK) installed on a Dell Dimension 4100 personal computer, throughout the experiment. The right jugular vein was cannulated for the administration of test compound and Evans Blue dye (at the end of the experiment). A parasternal thoracotomy was performed, the heart was suspended in a temporary pericardial cradle and a snare occluder was placed around the left anterior descending coronary artery (LAD). After completion of the surgical procedure the animals were allowed to stabilize for 30 min before LAD ligation. The coronary artery was occluded at time 0 by tightening of the occluder. After 25 min of acute myocardial ischemia, the occluder was released to allow reperfusion for 2 h.
The test compounds were administered as a slow intravenous injection (i.v.) 5 min prior to the onset of reperfusion of the ischemic heart. Following the 2 h reperfusion period, the coronary artery was re-occluded and Evans Blue dye (1 ml of 2% w/v) was injected into the left ventricle, via the right jugular vein cannula, to distinguish between perfused and non-perfused (AAR) sections of the heart. The Evans Blue solution stains the perfused myocardium, while the occluded vascular bed remains uncolored. The animals were sacrificed with an overdose of anesthetic and the heart excised. The heart was sectioned into slices of 3-4 mm thick, the right ventricular wall was removed, and the AAR (pink) was separated from the non-ischemic (blue) area. […]

eNOS = test: Western blot analysis for eNOS protein in ischemia-reperfusion rat heart; type: in vivo; details: ischemia 25 min, reperfusion 2 h, 0.5 mg/kg at 5 min prior to reperfusion, P<0.05 vs vehicle
Procedure: To elucidate the effects of the test compounds on the infarct size caused by regional myocardial ischemia and reperfusion, all animals were randomized into 8 study groups. The first group (Sham) comprised of animals not subjected to regional myocardial ischemia (25 min) followed by reperfusion (2 h) and treated with vehicle (1 ml/kg) 5 minutes prior to the onset of reperfusion. The second group of animals were subjected to regional myocardial ischemia (25 min) followed by reperfusion (2 h) and were treated with vehicle (saline, 1 ml/kg). […]
Hearts were pulverized at −80° C. using liquid nitrogen and a stainless steel pestle and mortar. […] Total protein concentrations were determined using the Bradford method (Bio-Rad, UK). […] Signals were detected using the enhanced chemiluminescence (ECL™) detection system (Cell Signaling Technology, U.S.A.) and autoradiographic film. For quantification of protein expression all blots were reprobed for muscle α-actin expression using 1/2000 dilution of a mouse anti-human actin (muscle antibody (Serotec), followed by incubation with a goat anti-mouse HRP linked secondary antibody ( 1/2000 dilution) (DakoCytomation, Denmark). Densitometry analysis was performed on scanned images (Hewlett Packard Scanjet) and analyzed using Scion Image (Scion Corp, National Institutes of Health, Bethesda, Md.).

[2] = system: Langendorff perfused rat hearts; test: Coronary flow in Langendorff perfused rat hearts; details: FIG. 3
Procedure: Adult male Wistar rats weighing 275-325 g, were intraperitoneally anesthetized with sodium pentobarbital (50 mg·kg^−1) and given heparin (300 Ukg·kg^−1) by the same route. Hearts were rapidly excised and immersed in 37° C. perfusion medium. The aorta was cannulated and retrograde-perfused at 80 mmHg with Tyrode's solution containing 120 mM NaCl, 25 mM NaHCO3, 3 mM KCl, 1.2 mM NaH2PO4, 2.5 mM CaCl2, 1.2 mM MgCl2, and […] 5.5 mM glucose. The perfusate was equilibrated with 95% O2, 5% CO2 at 37° C. Perfusion pressure was monitored using a MLT844/D pressure transducer (Capto, Horten, Norway) connected to a PowerLab (ADInstruments, Castle Hill, Australia). The coronary effluent was collected for the measurement of coronary flow.

[3] = system: focal cerebral ischemia-reperfusion rats; test: Striatal blood flow in focal cerebral ischemia-reperfusion rats (laser Doppler flowmetry); type: in vivo, rat; details: 40-min common carotid occlusion plus endothelin-1, 24-hrs reperfusion, FIG. 4
[4] = Serum glucose levels in NIDDM animals; type: in vivo, mouse; details: NIDDM rats, n=5, vehicle 0
MCAO rats = test: Middle cerebral artery occlusion (MCAO) cerebral ischemia lesions in rats; type: in vivo, rat; details: for Infarcted Volume (X ± SEM mm^3): vehicle D.W. 214.75 ± 26.37
Text: The same effects of preventing the ischemia-reperfusion damages with aporphine and oxoaporphine compounds also found in the other organs, such as brain. After Compound 16 or Compound 21, which is a compound of Formula B (where R1, R2, R5, R6 are OMe, R3, R4, R7 are H) was administrated to male Sprague Dawley rats, the effects of test compounds on the artery occlusive cerebral ischemia in the rats were monitored. First, permanent brain ischemia was induced by middle cerebral artery occlusion (MCAO) in the rats. At 0, 6, 24, 48, and 54 hours after the formation of middle cerebral artery occlusion (MCAO), Group I (i.e., the control group) animals were given the solvent (100% DMSO) (1 ml/kg, i.p.); Group II (i.e., the control group) animals were given the distilled water (D.W.) (1 ml/kg, i.p.);Group III animals (NCM-121) were given Compound 16 (1.5 mg/kg, i.p.); Group IV animals (NCM-124) were given Compound 21 (1.7 mg/kg, i.p); Group V animals were given MK-801 (0.3 mg/kg, i.p.), an antagonist of the N-methyl-D-aspartic acid (NMDA) receptor. There were ten rats in each group. Four days after the formation of MCAO, all the rats were sacrificed. Brain sections were made and stained with 2% cresol purple. The areas and volumes of cerebral ischemia lesions in each section were recorded.

COc1cc2c(cc1OC(C)C)C(=O)C1c3c(cc(OC(C)C)c(OC)c3-2)CCN1C (stereo not drawn) [Compound 3, 2,9-Diisopropyloxy-1,10-dimethoxy-7-oxoaporphine]
melting point: 82 to 84 °C

COc1cc2c(cc1O)C(=O)C1c3c(cc(OC(C)C)c(OC)c3-2)CCN1C (stereo not drawn) [Compound 4, 9-hydroxy-2-isopropyloxy-1,10-dimethoxy-7-oxoaporphine]
melting point: 240 to 242 °C

COc1ccc2c(c1)-c1c(OC)ccc3c1C(C2=O)N(C)CC3 (stereo not drawn) [Compound 7, 1,10-dimethoxy-7-oxoaporphine]
melting point: 162 to 164 °C

COc1cc2c(cc1OC)-c1c(O)c(OC)cc3c1C(C2)N(C)CC3 (stereo not drawn) [Compound 20]
infarct size [1]: 34±4 % of the area at risk | reduction in eNOS protein expression caused by ischemia and reperfusion (eNOS): significantly reduced | coronary blood flow [2]: increasing coronary blood flow | blood flow in brain (striatal blood flow) [3]: increase in blood flow in brain | serum glucose Percentage of change (%) ([4]; 3 mg/kg × 3 days, iv, 90 minutes after last dose vs pre-treatment): 12 ± 3.5%

COc1cc2c(cc1OC)-c1c(OC)c(OC)cc3ccnc(c13)C2=O [Compound 21]
Infarcted Volume (X ± SEM mm^3) (MCAO rats; IP 1.7 mg/kg × 6, N=10, four days after MCAO): 133.75 ± 19.57* mm^3 | % Decrease in total volume of ischemic lesions (MCAO rats; IP 1.7 mg/kg × 6, vs Group II vehicle (D.W.)): 37.72% | effects in reducing the areas and volumes of cerebral ischemia lesions as compared with MK-801 (MCAO rats; comparison in words): more significant effects | coronary blood flow [2]: increasing coronary blood flow

C[C@]12N[C@H](Cc3ccccc31)c1ccccc12 [MK-801, reference compound]
Infarcted Volume (X ± SEM mm^3) (MCAO rats; IP 0.3 mg/kg × 6, N=10, four days after MCAO): 47.34 ± 13.79* mm^3 | % Decrease in total volume of ischemic lesions (MCAO rats; IP 0.3 mg/kg × 6, vs Group II vehicle (D.W.)): 77.96%

CN(C)C(=N)N=C(N)N [Metformin, reference compound]
serum glucose Percentage of change (%) ([4]; 100 mg/kg × 3 days, po): 39 ± 1.6%
